Usually Ki stands for a measure of affinity in units of concentration, obtained from inhibition or displacement. A high value points to a looser hold on the target. A word on the inhibition: it is the drop in the measured response relative to a control, in per cent.

The target of experiment [1] is Delta-type opioid receptor (Homo sapiens, UniProt P41143). The experiment in a line: Displacement of [3H]diprenorphine from human DOP receptor expressed in CHO cell membrane. It is filed as cell membranes. In general terms: In a radioligand displacement assay an active substance lowers the binding of a labelled ligand.
In experiment [2] the target is T1, Nociceptin receptor (Homo sapiens, UniProt P41146). As to the kind of experiment: Agonist activity at human NOP receptor transfected in CHO cells assessed as stimulation of [35S]GTP-gamma-S at 100 uM. It is filed as functional, cell-based. For orientation: GTPγS is a poorly hydrolysed GTP analogue; its binding reports G protein activation.
Experiment [3] deals with Kappa-type opioid receptor (Homo sapiens, UniProt P41145). The experiment in a line: Displacement of [3H]diprenorphine from human KOP receptor expressed in CHO cell membrane. It is filed as cell membranes.
The target in experiment [4] is Mu-type opioid receptor (Homo sapiens, UniProt P35372). The experiment in a line: Displacement of [3H]diprenorphine from human MOP receptor expressed in CHO cell membrane. It is filed as cell membranes.
Experiment [5] concerns the target T1, Nociceptin receptor. As to the kind of experiment: Displacement of [125I][Tyr14]nociceptin FQ from human NOP receptor expressed in CHO cell membrane. It is filed as cell membranes.
Experiment [6] addresses T1, Nociceptin receptor. As to the kind of experiment: Agonist activity at human NOP receptor transfected in CHO cells assessed as stimulation of [35S]GTPgammaS at 1 uM. The class given is functional, cell-based.
Experiment [7] addresses T1, Nociceptin receptor. As to the kind of experiment: Agonist activity at human NOP receptor transfected in CHO cells assessed as stimulation of [35S]GTP-gamma-S at 0.1 uM. The class given is functional, cell-based.
The target of experiment [8] is T1, Nociceptin receptor. The experiment in a line: Activity at human NOP receptor transfected in CHO cells assessed as inhibition of [35S]GTP-gamma-S at 1 uM. It is filed as functional, cell-based.
The target of experiment [9] is T1, Nociceptin receptor. The experiment in a line: Activity at human NOP receptor transfected in CHO cells assessed as inhibition of [35S]GTPgammaS at 10 uM. The class given is functional, cell-based.

Chain of Kappa-type opioid receptor (P41145 whole entry): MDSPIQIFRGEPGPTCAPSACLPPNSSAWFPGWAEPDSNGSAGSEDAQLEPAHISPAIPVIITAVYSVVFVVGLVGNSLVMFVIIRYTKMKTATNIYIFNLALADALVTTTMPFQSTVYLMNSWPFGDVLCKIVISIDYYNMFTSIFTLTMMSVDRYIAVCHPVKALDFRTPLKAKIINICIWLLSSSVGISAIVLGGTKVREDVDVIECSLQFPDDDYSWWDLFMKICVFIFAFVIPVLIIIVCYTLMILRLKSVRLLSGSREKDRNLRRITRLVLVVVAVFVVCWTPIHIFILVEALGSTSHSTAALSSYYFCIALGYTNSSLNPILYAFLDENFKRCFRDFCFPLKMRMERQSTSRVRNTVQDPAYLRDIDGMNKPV
Chain of Delta-type opioid receptor (P41143 whole entry): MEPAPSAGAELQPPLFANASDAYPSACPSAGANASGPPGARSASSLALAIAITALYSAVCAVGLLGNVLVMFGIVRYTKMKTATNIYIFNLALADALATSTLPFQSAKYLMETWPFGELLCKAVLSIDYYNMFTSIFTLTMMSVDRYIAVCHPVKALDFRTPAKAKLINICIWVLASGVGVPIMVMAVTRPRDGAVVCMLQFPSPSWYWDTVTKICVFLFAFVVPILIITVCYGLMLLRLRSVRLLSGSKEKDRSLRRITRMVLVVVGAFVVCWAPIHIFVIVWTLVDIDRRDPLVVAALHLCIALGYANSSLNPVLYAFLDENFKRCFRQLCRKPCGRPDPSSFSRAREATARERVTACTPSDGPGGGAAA
T1 sequence (P41146 whole entry): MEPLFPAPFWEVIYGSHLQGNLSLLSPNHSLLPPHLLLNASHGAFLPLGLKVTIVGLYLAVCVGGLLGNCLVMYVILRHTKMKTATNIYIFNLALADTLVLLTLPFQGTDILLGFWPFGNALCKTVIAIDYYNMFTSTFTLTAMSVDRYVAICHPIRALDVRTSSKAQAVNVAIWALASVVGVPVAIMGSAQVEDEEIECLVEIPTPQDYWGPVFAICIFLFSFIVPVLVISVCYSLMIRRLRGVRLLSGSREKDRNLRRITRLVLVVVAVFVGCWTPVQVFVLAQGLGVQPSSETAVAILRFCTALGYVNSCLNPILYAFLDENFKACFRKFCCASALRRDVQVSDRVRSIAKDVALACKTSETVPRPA
Chain of Mu-type opioid receptor (P35372 whole entry): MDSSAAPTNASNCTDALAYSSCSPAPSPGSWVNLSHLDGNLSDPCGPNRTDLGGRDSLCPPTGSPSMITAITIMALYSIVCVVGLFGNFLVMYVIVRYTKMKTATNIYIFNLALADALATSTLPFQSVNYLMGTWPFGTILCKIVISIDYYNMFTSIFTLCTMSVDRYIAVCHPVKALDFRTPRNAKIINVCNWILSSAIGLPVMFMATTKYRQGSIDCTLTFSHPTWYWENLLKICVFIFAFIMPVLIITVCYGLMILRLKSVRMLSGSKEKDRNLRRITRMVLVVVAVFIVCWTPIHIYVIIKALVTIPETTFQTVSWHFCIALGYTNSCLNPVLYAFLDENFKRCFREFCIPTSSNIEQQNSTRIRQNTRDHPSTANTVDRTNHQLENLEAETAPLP

`OC1(C2CCCCC2)CCN(C(c2ccccc2)c2ccccc2)CC1`: the inhibition constant (Ki) in experiment [1] turned out to be 8110 nM; in experiment [3], 387 nM; in experiment [4], 407 nM; in experiment [5], 17 nM. The Activity in experiment [2] stood at 121%.
In the case of `NCc1ccccc1C1(O)CCN(C(c2ccccc2)c2ccccc2Br)CC1` (stereo not given), the Ki in [1] was 3290 nM; in experiment [3], 279 nM; in [4], 72 nM; in experiment [5], 1.1 nM. In addition, in experiment [6], the Activity was found to be 115%.
Take `NCc1ccccc1C1(O)CCN(C(c2ccccc2)c2ccccc2Cl)CC1` (stereo not given): the Ki was found to be 3700 nM in experiment [1], 425 nM in experiment [3], 72 nM in experiment [4] and 0.5 nM in experiment [5]. Also, the Activity in [7] was determined as 116%.
Regarding `OC1(c2cccc(F)c2)CCN(C(c2ccccc2)c2ccccc2)CC1`, the Ki in experiment [1] came out at 5610 nM; in [3], 1990 nM; in [4], 705 nM; in experiment [5], 23 nM. Further, the Activity in experiment [2] came to 61%.
Regarding `NCc1ccccc1C1(O)CCN(C(c2ccccc2Cl)c2ccccc2Cl)CC1`, the Ki came out at 3000 nM in [1], 747 nM in [3], 249 nM in experiment [4] and 0.5 nM in experiment [5]. Also, the Activity in [6] turned out to be 102%.
On to `Cc1ccccc1C1(O)CCN(C(c2ccccc2)c2ccccc2)CC1`, for which the Ki in experiment [1] was determined as 1670 nM; in experiment [3], 818 nM; in experiment [4], 74 nM; in experiment [5], 11 nM. Besides, in experiment [2], the Activity stood at 69%.
Consider `NCc1ccccc1C1(O)CCN(CC2CCCCCC2)CC1`, for which the Ki in experiment [1] worked out at 99500 nM; in experiment [3], 664 nM; in experiment [4] it was 452 nM; in experiment [5], 4.6 nM. For the same molecule, the inhibition in [8] was 67%.
On to `Cc1ccccc1C(c1ccccc1)N1CCC(O)(c2ccccc2CN)CC1` (stereo not given), for which the inhibition constant (Ki) was 2870 nM in [1], 725 nM in experiment [3], 28 nM in experiment [4] and 0.7 nM in experiment [5]. The Activity in [7] is 119%.
Take `CC1(C)CCC(N2CCC(O)(c3ccccc3CN)CC2)c2ccccc21` (stereo not given): the Ki in experiment [1] amounted to 23400 nM; in experiment [3], 1350 nM; in experiment [4] it was 181 nM; in experiment [5], 5.5 nM. For the same molecule, in [9], the inhibition worked out at 43%.
Regarding `NCc1ccccc1C1(O)CCN(C(c2ccccc2Br)c2ccccc2Br)CC1`, the Ki in [1] came to 3200 nM; in experiment [3], 278 nM; in experiment [4] it was 616 nM; in [5] it was 1.8 nM. Moreover, the Activity in experiment [6] was found to be 104%.

The values above are taken from ChEMBL document CHEMBL1147989, “Synthesis and structure-activity relationships of 4-hydroxy-4-phenylpiperidines as nociceptin receptor ligands: Part 2” (Bioorg Med Chem Lett, 2007).
